Experimental data: patent EP0432983A2 (priority 1989, dated 1991)
≈ marks a conversion by molar mass, not a printed value.

Assays:
HSV-1 [1] = test: Viral plaque reduction in HSV-1 infected CV-1 cells (Table 3); type: cell-based; parameters: key: (-) indicates no reduction in viral plaque production; (+) indicates a 50% reduction in viral plaque production; (++) indicates an 80% reduction in viral plaque production
Protocol: (§1) This test is performed according to standard procedures for determination of cytotoxicity of a compound againt virus infected cells. In the present case, CV-1 (monkey kidney fibroblast cells) are infected with HSV-1 and the compounds of the invention tested against these at varying concentrations.
(§2) The numbers show the toxicity throughout the CV-1 cells sheet. (-) indicates no reduction in viral plaque production (+) indicates a 50% reduction in viral plaque production (++) indicates an 80% reduction in viral plaque production.

[2] = tested on: VSV (Vesicular Stomatitis Virus); type: cell-based
CV-1 cells = test: Inhibition of growth of CV-1 cells (cytotoxic effect); type: cell-based, monkey; conditions: for inhibition of growth: CV-1 cells, 0.1, 0.5, 1, 5, 10 and 50 µg/ml; for IC50: Primates, 96 h, CV-1 cell growth, counted four days after seeding
Protocol: CV-1 cells are seeded into 16 mm dia. wells at 10⁴ cells per well in 1ml aliquots of MEM10C. The following day, the medium is replaced with 0.5 ml aliquots of MEM10C containing the test concentrations of compounds AH-1 and AH-2, i. e. 0, 0.1, 0.5, 1, 5, 10 and 50 µg/ml. Determinations are all carried out in duplicate. Four days after seeding, the cells are trypsinised and counted. Percentage inhibition (%I) relative to the wells without test compound (i.e. the controls) is calculated and the IC₅₀ determined.

[3] = tested on: L-1210 cells (mouse lymphoma); test: Activity against L-1210 cells; type: cell-based
[4] = tested on: CV-1 (monkey kidney fibroblast cells); test: Toxicity throughout the CV-1 cell sheet (Table 3); type: cell-based
Protocol: as §1, §2

HSV-1 [5] = test: Inhibition of HSV-1 replication (anti-viral effect), PFU determination; type: cell-based; conditions: Human alphaherpesvirus 1; HSV-1 replication in CV-1 cells, 10 PFU per cell, 24 hours after infection
Protocol: 16mm dia. wells are seeded each with 2 x 10⁵ CV-1 cells in 1ml aliquots of MEM10C. After three days, the cells are infected with HSV-1 at 10 PFU (Plaque Forming Units) per cell. The inoculum is replaced, after adsorption for 1.5 hours, in pairs of wells with 0. 5 ml aliquots of MEM5C containing the test concentrations of each of AH-1 and AH-2. Four hours from infection, the cells from two wells are scraped into the medium and frozen to -80°C. [The average of PFU/ml of these samples forms the base for calculating net virus production]. The remaining samples are collected in pairs of wells 24 hours after infection and are also frozen to -80°C. For determination of PFU/ml, each sample is diluted to 10⁻⁸.

Cc1c2c(c3c4c1C(C1OC1(C)C)CC(C)C4CCC3C)OCO2 (centres unmarked) [AH-1, Helioporin A]
reduction in viral plaque production (HSV-1 [1]; 5µl of 500µg/ml in MeOH/Acet): -
reduction in viral plaque production (HSV-1 [1]; 10µl of 500µg/ml in MeOH/Acet): -
reduction in viral plaque production (HSV-1 [1]; 20µl of 500µg/ml in MeOH/Acet): + ((+) indicates a 50% reduction in viral plaque production)
reduction in viral plaque production (HSV-1 [1]; 40µl of 500µg/ml in MeOH/Acet): ++ ((++) indicates an 80% reduction in viral plaque production)
activity against VSV [2]: no activity
inhibition of growth (CV-1 cells): no inhibition of growth
IC50 (CV-1 cells): > 50 µg/mL
activity against L-1210 cells [3]: no activity
toxicity throughout the CV-1 cells sheet ([4]; 5µl of 500µg/ml in MeOH/Acet): 0
toxicity throughout the CV-1 cells sheet ([4]; 10µl of 500µg/ml in MeOH/Acet): 0
toxicity throughout the CV-1 cells sheet ([4]; 20µl of 500µg/ml in MeOH/Acet): 0
toxicity throughout the CV-1 cells sheet ([4]; 40µl of 500µg/ml in MeOH/Acet): 0
IC50 (HSV-1 [5]): 4 µg/mL (≈ 12.2 µM)

Cc1cc2c(c3c1OCO3)C(C)CCC2C(C)CC(=O)CC(C)C (centres unmarked) [AH-2, Helioporin B]
reduction in viral plaque production (HSV-1 [1]; 5µl of 500µg/ml in MeOH/Acet): -
reduction in viral plaque production (HSV-1 [1]; 10µl of 500µg/ml in MeOH/Acet): -
reduction in viral plaque production (HSV-1 [1]; 20µl of 500µg/ml in MeOH/Acet): + ((+) indicates a 50% reduction in viral plaque production)
reduction in viral plaque production (HSV-1 [1]; 40µl of 500µg/ml in MeOH/Acet): ++ ((++) indicates an 80% reduction in viral plaque production)
activity against VSV [2]: no activity
inhibition of growth (CV-1 cells): no inhibition of growth
IC50 (CV-1 cells): > 50 µg/mL
activity against L-1210 cells [3]: no activity
toxicity throughout the CV-1 cells sheet ([4]; 5µl of 500µg/ml in MeOH/Acet): 0
toxicity throughout the CV-1 cells sheet ([4]; 10µl of 500µg/ml in MeOH/Acet): 0
toxicity throughout the CV-1 cells sheet ([4]; 20µl of 500µg/ml in MeOH/Acet): 0
toxicity throughout the CV-1 cells sheet ([4]; 40µl of 500µg/ml in MeOH/Acet): 0
IC50 (HSV-1 [5]): 1.6 µg/mL (≈ 4.84 µM)
